Source: PMC8959600 (eLife, 2022)
Values after ≈ are worked out from the molar mass of the structure shown.

How the values were obtained:
[1] = system: enteric pathogens (Salmonella spp., Shigella spp., K. pneumoniae, and E. coli); test: Checkerboard synergy assay (FIC), Gram-negative MDR clinical isolates; format: cell-based; conditions: Tebipenem/LpxC inhibitor combination, all tested enteric pathogens
Experimental: (§1) Before initiating drug combination assays, the MIC values for both compounds were determined against Shigella (Sf2457T), Salmonella (St14028), and E. coli (EcDH5a) isolates. […] 20 μM moxifloxacin was used as negative control (100% bacterial growth inhibition) in one column and DMSO as positive control (100% bacterial growth). A total of 25 µl of 1 × 10^6 CFU/mL bacterial culture was added to each well of a 384-well plate (μClear; Greiner Bio‐One). Plates were incubated overnight at 37 °C. Next, 10 µl of resazurin were added and plates were incubated at room temperature for 3 hr. Bacterial growth inhibition was measured by fluorescence in a Envision plate reader (PerkinElmer). All assays were performed in duplicate. Combination studies with clinical isolates were performed in 96-well plates (Greiner) adding 200 μl of 1 × 10^6 CFU/mL bacterial culture and following the same checkboard titration method as described above. The range of final working concentrations of each antimicrobial was adjusted based on the MIC of each selected organism.
(§2) MICs were determined for drug A and drug B alone and in combination. […]

[2] = Intestinal distribution by quantitative LC-MS in mice; format: in vivo; conditions: for peak drug concentration: mice, oral 50 mg/kg Tebipenem pivoxil
Experimental: One animal was euthanised at 0.25, 0.5, 1, and 4 hr respectively and 2.5–3 cm sections of the intestine (duodenum, jejunum, ileum, caecum, and colon) were collected and frozen at –80 °C. For quantitative LCMS analysis of intestine homogenate, samples were thawed at ambient temperature, mixed with water (1:1) and homogenised by turrax (10 sec). Subsequently, 20 µL of homogenate were mixed with 200 µl of ACN: MeOH (80:20) and filtered using 0.2 µm filter plate (Whatman). LCMS analysis was performed as described in previous section. For MALDI imaging, 50 mm of the central part of each intestinal section were cut and mounted in a sample disc on dry ice with a solution of 1% methylcellulose (Sigma Aldrich, UK). Next, tissue sections of 12 µm (sagital sections) were obtained using a cryostat (Leica CM3600; Leica Microsystems Inc, Wetzlar, Germany) at –20 °C and collected in conductive-coated slides for MALDI Imaging (Bruker Daltonic). After the ‘MALDI’ section was obtained a consecutive section for histology was taken. Prior to matrix coating, samples for MALDI were optical scanned in a PathScanner. The matrix deposition was conducted in a sprayer ImagePrep System (Bruker Daltonic) which uses vibrational vaporisation technology. As matrix solution α-CHCA (α-Cyano-4-hydroxycinnamic acid (Sigma Aldrich) dissolved in 70:30 methanol/water (v/v) containing 0.2% TFA at 7 mg/mL was used. MALDI MSI data were obtained using a Bruker UltrafleXtream MALDI TOF/TOF (Bruker Daltonic, Germany)).

[3] = system: clinical isolates of Shigella (S. flexneri EG478, S. flexneri_01_0417, S. sonnei_02_1181); test: Time-kill curve assays; format: cell-based, Shigella spp.
Experimental: Time-kill curve assays were performed in 20 mL volume in 50 mL tubes by culturing 5 × 10^5 CFU/mL Shigella spp. in Müller Hinton broth in the presence of four antimicrobial concentrations in doubling dilutions ranging from 0.5xMIC to 4xMIC. Bacteria were grown with agitation at 200 rpm at 37 °C and monitored over a time-course of 24 hr (0, 2, 4, 6, 8, and 24 hr). For each concentration and time point, 100 μL of bacterial culture were diluted and used to inoculate Luria-Bertani agar plates that were incubated at 37 °C overnight. Next, bacterial colonies were enumerated.

[4] = in vivo; conditions: pig, po, 50 mg/kg
Experimental: Blood was collected from the jugular veins while manually restraining the piglets. […] Blood samples were centrifuged at 2,200 x g for 10 min at 4 °C. Plasma was extracted and stored at –80 °C. Pharmacokinetic analysis was performed as above described.

[5] = system: S. flexneri 2457T; test: microbe, parasite or virus in culture; format: cell-based, Shigella flexneri
Experimental: Bacterial inoculum without drug was used as positive control. The bacteria inoculum (1 × 10^5 CFU/mL) for the assay was prepared by diluting a log phase incubated at 37 °C for 3–4 hr. Mueller Hinton agar plates were prepared containing 4xMIC and 10xMIC and inoculated with different concentrations of bacteria (1 × 10^9, 1 × 10^8, and 1 × 10^7 CFU/mL). Plates were prepared in duplicate and incubated overnight at 37 °C. The frequency of spontaneous resistant mutants was calculated by using the formula: FoR = resistant CFUs/inoculum CFUs. The mean of the two plates was reported.

[6] = system: Salmonella (St14028); test: Checkerboard synergy assay (FIC), laboratory isolate; format: cell-based, S. Typhimurium
Experimental: as §1
MICs were determined for drug A and drug B alone and in combination. […] The sum of FIC was expressed using the following equation: FIC = (MIC of drug A in combination / MIC of drug A alone) + (MIC of drug B in combination / MIC of drug B alone) ([Le Minh et al., 2015]; [Petersen et al., 2006]; [Hall et al., 1983]; [European Committee for Antimicrobial Susceptibility Testing (EUCAST) of the European Society of Clinical Microbiology and Infectious Dieases (ESCMID), 2000]).

[7] = system: invasive and non-invasive Salmonella isolates; test: Checkerboard synergy assay (FIC), clinical Salmonella isolates; format: cell-based; conditions: in combination with azithromycin
Experimental: as §1, §2

[8] = female, C57, mouse, duodenum and jejunum, po, 50 mg/kg, read-out: concentration in tissue
[9] = in combination with LpxC inhibitor PF-5081090

Which “interaction (FIC index)” value [1] does the source give for `C[C@@H](O)[C@H]1C(=O)N2C(C(=O)O)=C(SC3CN(C4=NCCS4)C3)[C@H](C)[C@H]12` [Tebipenem] here?
The value was “indifference or partial synergy”.

And the concentration at 15 min [2, 8]?
Its concentration at 15 min is > 300000 ng/g.

What about the concentration at 240 min [2, 8] of the same molecule?
Its concentration at 240 min is > 400 ng/g.

And the peak drug concentration ([2]; caecum, after 60 min)?
The peak drug concentration was 11 µg/g tissue.

And the peak drug concentration ([2]; colon, after 60 min)?
The peak drug concentration was 6 µg/g tissue.

What about the peak drug concentration ([2]; ileum, after 30 min) of the same molecule?
Its peak drug concentration is 15 µg/g tissue.

And the “time kill, antibacterial activity” value ([3]; higher concentrations (2–4 x MIC), 24 hr)?
The value was “protracted antibacterial activity”.

And the “time kill, population behaviour” value ([3]; lower concentrations (0.5–1 x MIC), after 6 hr exposure, all three isolates)?
Its value is “Population rebounds occurred”.

What about the AUC(0-t) [4] of the same molecule?
The AUC(0-t) was 32000 ng·h/mL.

And the concentration at 6 hr [4]?
Its concentration at 6 hr is 1000 ng/mL.

What about the “frequency of spontaneous resistance” value ([5]; S. flexneri 2457T, 4 x and 10 x MIC) of the same molecule?
The value was < 1.2 × 10^–9.

And the MIC ([5]; Shigella flexneri, 2457T)?
The MIC was 0.02 µM (≈ 7.67 ng/mL).

And the “interaction (FIC index)” value [6, 9]?
The value was “partial synergy”.

And the “reduction of the MIC against Tebipenem” value [6, 9]?
The value was > 10 fold.

And the “interaction (FIC index)” value ([6]; in combination with azithromycin)?
The value was “partial synergy”.

And the “interaction (FIC index)” value ([6]; in combination with ceftriaxone)?
Its value is “indifference or partial synergy”.

And the “interaction (FIC index)” value ([6]; in combination with ciprofloxacin)?
The value was “indifference or partial synergy”.

What about the “interaction (FIC index)” value ([6]; in combination with mecillinam) of the same molecule?
The value was “indifference or partial synergy”.

And the FIC scores [7]?
Its FIC scores is ~ 0.5.
